From ChEMBL document CHEMBL6114984, “Discovery of 2,4-diaminopyrimidine derivatives as potent inhibitors of FAK capable of activating the Hippo pathway for the treatment of esophageal squamous cell carcinoma” (Eur J Med Chem, 2025)

Experiments:
[1] = in vitro; conditions: rat, liver microsomes
Description: Metabolic stability in rat liver microsomes assessed as parent compound remaining measured after 5 min

[2] = in vitro; conditions: rat, liver microsomes; remark: listed apart in the source
Description: Metabolic stability in rat liver microsomes assessed as parent compound remaining measured after 60 min

[3] = in vitro; conditions: rat, liver microsomes; remark: listed apart in the source
Description: Metabolic stability in rat liver microsomes assessed as parent compound remaining measured after 30 min

[4] = Metabolic stability in rat liver assessed as intrinsic clearance
[5] = in vitro; conditions: rat, liver microsomes; remark: listed apart in the source
Description: Metabolic stability in rat liver microsomes assessed as parent compound remaining measured after 15 min

[6] = test system: NCI-N87; assay: cells; conditions: Homo sapiens, NCI-N87, 48 h
Description: Antiproliferative activity against human NCI-N87 cells assessed as inhibition of cell proliferation incubated for 48 hrs by MTT assay

[7] = test system: Huh-7; assay: cells; conditions: Homo sapiens, Huh-7, 48 h
Description: Antiproliferative activity against human Huh-7 cells assessed as inhibition of cell proliferation incubated for 48 hrs by MTT assay

[8] = test system: KYSE-450; assay: cells; conditions: Homo sapiens, KYSE-450, 48 h
Description: Antiproliferative activity against human KYSE-450 cells assessed as inhibition of cell proliferation incubated for 48 hrs by MTT assay

[9] = test system: KYSE-30; assay: cells; conditions: Homo sapiens, KYSE-30, 48 h
Description: Antiproliferative activity against human KYSE-30 cells assessed as inhibition of cell proliferation incubated for 48 hrs by MTT assay

[10] = test system: MDA-MB-231; assay: cells; conditions: Homo sapiens, MDA-MB-231, 48 h
Description: Antiproliferative activity against human MDA-MB-231 cells assessed as inhibition of cell proliferation incubated for 48 hrs by MTT assay

[11] = test system: HCT-116; assay: cells; conditions: Homo sapiens, HCT-116, 48 h
Description: Antiproliferative activity against human HCT-116 cells assessed as inhibition of cell proliferation incubated for 48 hrs by MTT assay

[12] = test system: NCI-H1975; assay: cells; conditions: Homo sapiens, NCI-H1975, 48 h
Description: Antiproliferative activity against human NCI-H1975 cells assessed as inhibition of cell proliferation incubated for 48 hrs by MTT assay

[13] = test system: KYSE-150 cell line; assay: Antiproliferative activity against human KYSE-150 cell line assessed as inhibition of cell proliferation incubated for 48 hrs by MTT assay; assay type: functional, cell-based; conditions: KYSE-150, 48 h
[14] = test system: ECa-109 cell line; assay: cells; conditions: Homo sapiens, ECa-109, 48 h
Description: Antiproliferative activity against human EC109 cells assessed as inhibition of cell proliferation incubated for 48 hrs by MTT assay

[15] = test system: MGC-803; assay: cells; conditions: Homo sapiens, MGC-803, 48 h
Description: Antiproliferative activity against human MGC-803 cells assessed as inhibition of cell proliferation incubated for 48 hrs by MTT assay

[16] = test system: DU-145; assay: cells; conditions: Homo sapiens, DU-145, 48 h
Description: Antiproliferative activity against human DU-145 cells assessed as inhibition of cell proliferation incubated for 48 hrs by MTT assay

remaining at 5 min [1] [%] | remaining at 1 h [2] [%] | remaining at 0.5 h [3] [%] | CLint scaled [4] [mL/min/kg] | remaining at 0.25 h [5] [%] | IC50 [6] [µM] | IC50 [7] [µM] | IC50 [8] [µM] | IC50 [9] [µM] | IC50 [10] [µM] | IC50 [11] [µM] | IC50 [12] [µM] | IC50 [14] [µM] | IC50 [15] [µM] | IC50 [16] [µM] | SMILES | IC50 [13] [µM]
77.9 | 11.5 | 33.8 | 127 | 55.7 |  |  |  |  |  |  |  |  |  |  | O=C(O)Cc1ccccc1Nc1c(Cl)cccc1Cl [DICLOFENAC] | 
 |  |  |  |  | 2.12 | 0.51 | 3.44 | 1.03 | 2.12 | 1.52 | 1.82 | 3.27 | 1.28 | 0.72 | CNC(=O)c1ccccc1Nc1nc(Nc2ccc(N3CCOCC3)cc2OC)ncc1Cl | 1.82
